Measured values reported in the NIST ThermoML archive (doi:10.1016/j.jct.2016.03.036).
“And” between values parts separate entries of the source, which are not always exact repeats. Equal values may be shown once.

Test: xn = mol fraction of the nth substance listed
Details: Gas, Spherical resonator

[Ar] [argon] + O=C=O
Details	speed of sound
274.99 K, 4022.9 kPa, x2 = 0.501	263.92 m/s and 263.91 m/s
274.99 K, 4023.2 kPa, x2 = 0.501	263.86 m/s
274.99 K, 6072.9 kPa, x2 = 0.501	257.99 m/s and 257.96 m/s
274.99 K, 6073.3 kPa, x2 = 0.501	258.01 m/s
275 K, 2006.3 kPa, x2 = 0.501	270.61 m/s and 270.59 m/s
275 K, 2006.4 kPa, x2 = 0.501	270.44 m/s
275 K, 8215.3 kPa, x2 = 0.501	254.18 m/s and 254.17 m/s
275 K, 8216.3 kPa, x2 = 0.501	253.76 m/s
276.09 K, 501.14 kPa, x2 = 0.7498	264.91 m/s
276.09 K, 1998.9 kPa, x2 = 0.7498	255.17 m/s and 255.16 m/s
276.09 K, 1999 kPa, x2 = 0.7498	255.07 m/s
276.09 K, 4003.2 kPa, x2 = 0.7498	240.29 m/s
276.09 K, 4003.3 kPa, x2 = 0.7498	240.28 m/s
276.09 K, 4003.6 kPa, x2 = 0.7498	240.29 m/s
276.09 K, 4995.2 kPa, x2 = 0.7498	231.83 m/s and 231.82 m/s
276.09 K, 4995.7 kPa, x2 = 0.7498	232.3 m/s
276.09 K, 5295.4 kPa, x2 = 0.7498	229.02 m/s and 229.01 m/s
276.09 K, 5296 kPa, x2 = 0.7498	229.56 m/s
276.09 K, 5399.3 kPa, x2 = 0.7498	228 m/s
276.09 K, 5399.8 kPa, x2 = 0.7498	228.57 m/s
276.09 K, 5502.4 kPa, x2 = 0.7498	226.98 m/s
276.09 K, 5503 kPa, x2 = 0.7498	227.57 m/s
290.01 K, 485.29 kPa, x2 = 0.7498	271.44 m/s
290.01 K, 1978.9 kPa, x2 = 0.7498	263.38 m/s and 263.41 m/s
290.01 K, 1979 kPa, x2 = 0.7498	263.3 m/s
290.01 K, 4023.1 kPa, x2 = 0.7498	251.71 m/s and 251.65 m/s
290.01 K, 4023.4 kPa, x2 = 0.7498	251.64 m/s
290.01 K, 6011.9 kPa, x2 = 0.7498	239.66 m/s
290.01 K, 6012.1 kPa, x2 = 0.7498	239.67 m/s
290.01 K, 6012.7 kPa, x2 = 0.7498	240.25 m/s
290.01 K, 8057 kPa, x2 = 0.7498	227.35 m/s
290.01 K, 8057.4 kPa, x2 = 0.7498	227.74 m/s
290.02 K, 8057.1 kPa, x2 = 0.7498	227.32 m/s
299.85 K, 8170.1 kPa, x2 = 0.501	275.03 m/s
299.85 K, 8170.2 kPa, x2 = 0.501	275.04 m/s
299.85 K, 8170.7 kPa, x2 = 0.501	275.13 m/s
299.94 K, 1986.8 kPa, x2 = 0.501	283.88 m/s and 283.89 m/s
299.94 K, 1987 kPa, x2 = 0.501	283.79 m/s
299.94 K, 4020.8 kPa, x2 = 0.501	279.77 m/s
299.95 K, 494.36 kPa, x2 = 0.501	287.27 m/s
299.95 K, 4020.5 kPa, x2 = 0.501	279.84 m/s and 279.82 m/s
299.95 K, 6007.5 kPa, x2 = 0.501	276.82 m/s
299.95 K, 6007.9 kPa, x2 = 0.501	276.82 m/s
299.95 K, 7657.9 kPa, x2 = 0.501	275.37 m/s
299.95 K, 7658 kPa, x2 = 0.501	275.38 m/s
299.96 K, 7658.9 kPa, x2 = 0.501	275.44 m/s
310 K, 5999.6 kPa, x2 = 0.7498	258 m/s
310.01 K, 488.28 kPa, x2 = 0.7498	280.3 m/s
310.01 K, 1980.9 kPa, x2 = 0.7498	274.11 m/s and 274.12 m/s
310.01 K, 1981 kPa, x2 = 0.7498	274.01 m/s
310.01 K, 4023.9 kPa, x2 = 0.7498	265.68 m/s and 265.67 m/s
310.01 K, 4024.2 kPa, x2 = 0.7498	265.61 m/s
310.01 K, 5999.7 kPa, x2 = 0.7498	257.99 m/s
310.01 K, 6000.2 kPa, x2 = 0.7498	258.01 m/s
310.01 K, 8062.5 kPa, x2 = 0.7498	251.41 m/s
310.01 K, 8062.7 kPa, x2 = 0.7498	251.51 m/s
310.01 K, 8063.3 kPa, x2 = 0.7498	251.52 m/s
350.01 K, 487.4 kPa, x2 = 0.501	308.87 m/s
350.01 K, 500.81 kPa, x2 = 0.7498	296.88 m/s
350.01 K, 1987.2 kPa, x2 = 0.7498	293.21 m/s
350.01 K, 1987.3 kPa, x2 = 0.7498	293.13 m/s
350.01 K, 1987.4 kPa, x2 = 0.7498	293.08 m/s
350.01 K, 1989.8 kPa, x2 = 0.501	307.6 m/s and 307.57 m/s
350.01 K, 1990 kPa, x2 = 0.501	307.46 m/s
350.01 K, 4001.2 kPa, x2 = 0.501	306.39 m/s and 306.37 m/s
350.01 K, 4001.5 kPa, x2 = 0.501	306.3 m/s
350.01 K, 4010.3 kPa, x2 = 0.7498	288.58 m/s and 288.52 m/s
350.01 K, 4010.6 kPa, x2 = 0.7498	288.5 m/s
350.01 K, 6002.2 kPa, x2 = 0.501	305.92 m/s and 305.92 m/s
350.01 K, 6002.6 kPa, x2 = 0.501	305.94 m/s
350.01 K, 6017.8 kPa, x2 = 0.7498	284.82 m/s and 284.81 m/s
350.01 K, 6018.2 kPa, x2 = 0.7498	284.8 m/s
350.01 K, 7290.6 kPa, x2 = 0.501	306.26 m/s and 306.02 m/s
350.01 K, 7291.2 kPa, x2 = 0.501	306.19 m/s
350.01 K, 8200.3 kPa, x2 = 0.7498	282.09 m/s and 282.08 m/s
350.01 K, 8201 kPa, x2 = 0.7498	282.12 m/s
400.13 K, 501.93 kPa, x2 = 0.7498	316.14 m/s
400.13 K, 1988.1 kPa, x2 = 0.7498	314.38 m/s and 314.32 m/s
400.13 K, 1988.3 kPa, x2 = 0.7498	314.31 m/s
400.13 K, 4018.3 kPa, x2 = 0.7498	312.3 m/s and 312.25 m/s
400.13 K, 4018.6 kPa, x2 = 0.7498	312.17 m/s
400.13 K, 6013.1 kPa, x2 = 0.7498	310.98 m/s and 310.94 m/s
400.13 K, 6013.5 kPa, x2 = 0.7498	310.89 m/s
400.13 K, 7954.4 kPa, x2 = 0.7498	310.44 m/s
400.13 K, 7954.5 kPa, x2 = 0.7498	310.43 m/s
400.13 K, 7955.1 kPa, x2 = 0.7498	310.44 m/s
400.19 K, 2000.8 kPa, x2 = 0.501	328.69 m/s and 328.63 m/s
400.19 K, 2000.9 kPa, x2 = 0.501	328.52 m/s
400.2 K, 451.92 kPa, x2 = 0.501	328.79 m/s
400.2 K, 4008.7 kPa, x2 = 0.501	328.95 m/s and 329.02 m/s
400.2 K, 4009 kPa, x2 = 0.501	328.85 m/s
400.2 K, 5980.4 kPa, x2 = 0.501	329.82 m/s and 329.89 m/s
400.2 K, 5980.8 kPa, x2 = 0.501	329.73 m/s
400.2 K, 7411 kPa, x2 = 0.501	330.82 m/s
400.2 K, 7411.2 kPa, x2 = 0.501	330.79 m/s
400.2 K, 7411.7 kPa, x2 = 0.501	330.75 m/s
500.46 K, 1988.3 kPa, x2 = 0.501	365.88 m/s and 365.86 m/s
500.46 K, 1988.4 kPa, x2 = 0.501	365.73 m/s
500.46 K, 4007.9 kPa, x2 = 0.501	367.67 m/s and 367.61 m/s
500.46 K, 4008.1 kPa, x2 = 0.501	367.56 m/s
500.46 K, 6008.3 kPa, x2 = 0.501	369.75 m/s and 369.73 m/s
500.46 K, 6008.7 kPa, x2 = 0.501	369.69 m/s
500.46 K, 7264.4 kPa, x2 = 0.501	371.24 m/s and 371.28 m/s
500.46 K, 7264.8 kPa, x2 = 0.501	371.19 m/s
500.48 K, 501.81 kPa, x2 = 0.7498	351 m/s
500.48 K, 2003.9 kPa, x2 = 0.7498	351.19 m/s and 351.23 m/s
500.48 K, 2004 kPa, x2 = 0.7498	351.03 m/s
500.48 K, 4010 kPa, x2 = 0.7498	351.64 m/s and 351.63 m/s
500.48 K, 4010.3 kPa, x2 = 0.7498	351.5 m/s
500.48 K, 6000.8 kPa, x2 = 0.7498	352.54 m/s and 352.49 m/s
500.48 K, 6001.2 kPa, x2 = 0.7498	352.39 m/s
500.49 K, 8007.4 kPa, x2 = 0.7498	353.87 m/s
500.49 K, 8007.5 kPa, x2 = 0.7498	353.82 m/s
500.49 K, 8008 kPa, x2 = 0.7498	353.78 m/s
500.5 K, 476.59 kPa, x2 = 0.501	364.75 m/s
